Source: ChEMBL document CHEMBL1126539, “Oxazole, thiazole, and imidazole derivatives of 2,6-di-tert-butylphenol as dual 5-lipoxygenase and cyclooxygenase inhibitors” (Bioorg Med Chem Lett, 1993)
pIC50: −log10 of the molar value.

Tests used:
[1] = tested on: RBL-1; experiment: Compound was tested for its inhibitory activity against PGF-2 alpha (CO) formation in RBL-1 cells stimulated with the calcium ionophore A-23187; assay type: functional, cell-based; conditions: Rattus norvegicus
[2] = tested on: RBL-1; experiment: Compound was tested for its inhibitory activity against LTB4 (5-LO) formation in RBL-1 cells stimulated with the calcium ionophore A-23187; assay type: functional, cell-based; conditions: Rattus norvegicus
[3] = tested on: Rattus norvegicus; experiment: Compound was tested for inhibition of edema in the carrageenan foot-pad edema test; inactive; assay type: functional

| Structure (SMILES) | pIC50 [1] | pIC50 [2] | Inhibition [3] [%] |
| --- | --- | --- | --- |
| CC(C)(C)c1cc(/C=C2\OC(N=C(N)N)=NC2=O)cc(C(C)(C)C)c1O | 6.47 | 5.92 |  |
| CN1C(NC(=N)N)=NC(=O)/C1=C/c1cc(C(C)(C)C)c(O)c(C(C)(C)C)c1 | 5.68 | 5.89 | <25 |
| CC(C)(C)c1cc(/C=C2\SC(N=C(N)N)=NC2=O)cc(C(C)(C)C)c1O | 7.08 | 6.04 |  |
| CC(C)(C)c1cc(/C=C2\SC(=S)NC2=O)cc(C(C)(C)C)c1O | 7.92 | 6.42 |  |
| CC(C)(C)c1cc(/C=C2\OC(=S)NC2=O)cc(C(C)(C)C)c1O | 5.77 | 6.08 |  |
| CC(C)(C)c1cc(/C=C2\OC(=O)NC2=O)cc(C(C)(C)C)c1O | 6.19 | 5.55 |  |
| CN1C(=O)NC(=O)/C1=C/c1cc(C(C)(C)C)c(O)c(C(C)(C)C)c1 | 5.34 | 6.11 | <25 |
| CC(C)(C)c1cc(/C=C2\SC(=O)NC2=O)cc(C(C)(C)C)c1O | 6.46 |  |  |
| CN1C(=S)NC(=O)/C1=C/c1cc(C(C)(C)C)c(O)c(C(C)(C)C)c1 | 6.10 | 6.77 | <25 |
| CC(C)(C)c1cc(/C=C2\SC(=N)NC2=O)cc(C(C)(C)C)c1O [DARBUFELONE] | 6.96 | 5.92 |  |
| Cc1ccc(Cl)c(Nc2ccccc2C(=O)O)c1Cl [MECLOFENAMATE SODIUM] |  | 4.62 |  |
